Molecular target: T1, RIG-I (Homo sapiens, UniProt O95786)
T1 construct: HEK293 cells overexpressing either the full length RIG-I; host or cells: HEK293; HCT116 also for the qRT-PCR validation
T1 sequence (O95786 1-925): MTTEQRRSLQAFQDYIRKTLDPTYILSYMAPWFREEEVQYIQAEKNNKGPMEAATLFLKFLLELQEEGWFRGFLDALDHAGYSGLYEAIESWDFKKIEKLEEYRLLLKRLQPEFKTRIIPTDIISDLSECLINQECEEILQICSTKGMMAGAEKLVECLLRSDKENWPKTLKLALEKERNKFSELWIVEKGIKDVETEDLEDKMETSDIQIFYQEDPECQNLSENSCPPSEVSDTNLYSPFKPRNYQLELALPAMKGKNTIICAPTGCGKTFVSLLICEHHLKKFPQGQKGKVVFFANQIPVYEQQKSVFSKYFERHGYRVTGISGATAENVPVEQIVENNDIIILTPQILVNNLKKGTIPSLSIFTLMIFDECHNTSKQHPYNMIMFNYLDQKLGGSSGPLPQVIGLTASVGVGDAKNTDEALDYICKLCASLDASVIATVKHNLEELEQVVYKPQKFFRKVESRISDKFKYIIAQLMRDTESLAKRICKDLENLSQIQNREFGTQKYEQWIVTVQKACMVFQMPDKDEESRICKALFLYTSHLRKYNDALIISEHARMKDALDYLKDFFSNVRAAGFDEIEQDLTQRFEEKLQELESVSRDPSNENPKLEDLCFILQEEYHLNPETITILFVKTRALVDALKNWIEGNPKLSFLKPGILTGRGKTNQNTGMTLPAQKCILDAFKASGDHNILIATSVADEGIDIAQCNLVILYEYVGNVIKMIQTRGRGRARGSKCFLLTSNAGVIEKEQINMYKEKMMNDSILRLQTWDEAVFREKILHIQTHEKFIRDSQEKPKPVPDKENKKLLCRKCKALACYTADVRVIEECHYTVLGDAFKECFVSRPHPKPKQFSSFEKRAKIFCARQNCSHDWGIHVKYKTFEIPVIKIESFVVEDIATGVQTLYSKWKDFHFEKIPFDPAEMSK
Assay: RNA sequencing of RNA bound to RIG-I (RIG-I pulldown) after IR
Format: binding
Experimental: Technically, identification of RNAs was performed as follows: […] Cambridge, Mass.). Twenty-four hours post-transfection, cells were either mock-irradiated or exposed to IR (6 Gy). […] Cell lysates were separated from cell debris by centrifugation at 12,000 rpm at 4° C. Protein concentration was measured by BCA kit. Anti-FLAG monoclonal antibody was added to the cell lysate at a 1:500 dilution, and incubated overnight at 4° C. Protein G sepharose beads were added to the lysates and incubated for at least 2 hours at 4° C. […] Proteinase K was added to the eluates and incubated at 50° C. for 45 minutes. Trizol reagent was then added to the solution, and RNA bound to RIG-I was purified following manufacturer's protocol. RNA quality was analyzed using an Agilent Bioanalyzer 2100 with Pico Series II cartridges. RNA yield was measured using the Qubit RNA Broad Range kit. For qRT-PCR validation experiments of RIG-I pulled down RNA, UV cross-linking (2 doses at 150 mJ/cm^2) was performed on HEK293 and HCT116 overexpressing RIG-I prior to cell lysis. The same protocol for pulldown and RNA purification experiments was performed as described above. We eluted total RNA and RNA bound to RIG-I from RIG-I over-expressing HEK293 cells 48 hours post IR (6 Gy). […] Libraries were sequenced on Illumina HiSeq2500 instrument to generate 50 bp pair-ended reads. Sequencing files in FastQ format were processed using AlienTrimmer (Criscuolo A and Brisse S, 2013) to remove adapter sequences and to trim low quality reads with Phred quality score <20. The preprocessed reads were aligned to the human reference genome (Ensembl GRCh38) using Spliced Transcripts Alignment to a Reference (STAR) software (Dobin et al., 2013). The featureCounts tool from Bioconductor package RSubread was used to summarize and quantify the abundances of genomic features of the mapped reads (Liao et al., 2013). Mapped reads were annotated using human GENCODE version 20 (Harrow et al., 2012) and were summarized to 35 gene/transcript and non-coding RNA biotypes annotated in GENCODE/Ensemble databases. RepEnrich program (Criscione et al., 2014) was used to identify and quantify the repetitive elements. The program uses Bowtie (Langmead et al., 2009) to align the reads to the human reference genome (Ensembl GRCh38) and human repetitive element pseudogenomes built upon […] annotation library hg38.fa.out.gz (available at […].org on the World Wide Web). The mapped reads were summarized by repetitive element subfamilies, families and classes (Tables 3, 4 and 5). […]

[1] = Top 50 RIG-I binding RNAs, RepeatMasker annotations, RIG-I pulldown vs total RNA, HEK293, 48 h post IR (6 Gy)

## U2: snRNA, SEQ ID NO:21
All mapped reads identified using RepeatMasker
  log2FC: 5.983
RepeatMasker annotations, mean of set 1 and set 2
  Mean log2FC: 3.948
[1]
  log2FC (set 1): 5.983
  log2FC (set 2): 1.914
